Counter-ions that a name gives are not always drawn.

The values that follow come from patent US20230022724A1, “NOVEL IMIDAZOPYRAZINE DERIVATIVES” (Hoffmann-La Roche Inc., priority 2018, published 2023).

The test system of one experiment is Acinetobacter baumannii ATCC17978. As to the kind of experiment: Antimicrobial susceptibility testing: 90% growth inhibitory concentration (IC90) determination. The class given is cell-based. The settings on record: 90% growth inhibitory concentration, Acinetobacter baumannii ATCC17978, Iso-Sensitest broth, OD 600 nm over 16 h; read-out: ATCC17978 IC90. Summed up: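 Compounds in twofold series (e.g. 50 to 0.097 μM final) in Iso-Sensitest broth, inoculated at ~5×10^5 CFU/ml, incubated at 35±2° C. OD600 was read every 20 minutes for 16 h. IC90 was derived from growth inhibition during logarithmic phase.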
As usually defined, the IC90 is the concentration needed for an effect of 90%. In the case of `CNCC(=O)N1CCN(C(=O)c2ccc(Nc3nccn4c(-c5ccc(OC)c(F)c5)cnc34)cc2Cl)CC1` [Example 40, 1-(4-(2-chloro-4-((3-(3-fluoro-4-methoxyphenyl)imidazo [1,2-a]pyrazin-8-yl)amino)benzoyl)piperazin-1-yl)-2-(methylamino)ethanone], the IC90 amounted to 150 nM.

Take `COc1ccc(-c2cnc3c(Nc4ccc(C(=O)N5CCC(C(=O)NCC6CNC6)CC5)c(Cl)c4)nccn23)cc1F` [Example 19, N-(azetidin-3-ylmethyl)-1-(2-chloro-4-((3-(3-fluoro-4-methoxyphenyl)imidazo[1,2-a]pyrazin-8-yl)amino)benzoyl)piperidine-4-carboxamide]: the IC90 was found to be 300 nM.

As to “(R)-1-(2-chloro-4-((3-(3-fluoro-4-methoxyphenyl)imidazo[1,2-a]pyrazin-8-yl)amino)benzoyl)-N-(pyrrolidin-3-yl)piperidin-4-carboxamide hydrochlroide [Example 17]”, the IC90 worked out at 220 nM.

Staying with this experiment, now noted: Acinetobacter baumannii, ATCC17978, 16 h, 90% growth inhibitory concentration, Acinetobacter baumannii ATCC17978, Iso-Sensitest broth, OD 600 nm over 16 h; read-out: ATCC17978 IC90.
In the case of `NCC1CCN(C(=O)c2ccc(Nc3nccn4c(-c5ccc(OC(F)F)cc5)cnc34)cc2Br)CC1` [Example 5, (4-(aminomethyl)piperidin-1-yl)(2-bromo-4-((3-(4-(difluoromethoxy)phenyl)imidazo[1,2-a]pyrazin-8-yl)amino)phenyl)methanone hydrochloride], the IC90 worked out at 140 nM.

In the case of `N#CCOc1ccc(-c2cnc3c(Nc4ccc(C(=O)N5CCC(c6cnc[nH]6)CC5)c(Cl)c4)nccn23)c(F)c1F` [Example 11, 2-[4-[8-[3-chloro-4-[4-(1H-imidazol-5-yl)piperidine-1-carbonyl]anilino]imidazo[1,2-a]pyrazin-3-yl]-2,3-difluoro-phenoxy]acetontrile; 2,2,2-trifluoroacetic acid], the IC90 is 140 nM.

With `O=C(c1ccc(Nc2nccn3c(-c4ccc(OC(F)F)cc4)cnc23)cc1Cl)N1CCC(N2CCNCC2)CC1` [Example 67, [2-chloro-4-[[3-[4-(difluoromethoxy)phenyl]imidazo [1,2-a]pyrazin-8-yl]amino]phenyl]-(4-piperazin-1-ylpiperidin-1-yl)methanone;hydrochloride], the IC90 was determined as 170 nM.

Regarding `CNCCN1CCN(C(=O)c2ccc(Nc3nccn4c(-c5ccc(OC)c(F)c5)cnc34)cc2Cl)CC1` [Example 20, (2-chloro-4-((3-(3-fluoro-4-methoxyphenyl)imidazo[1,2-a]pyrazin-8-yl)amino)phenyl)(4-(2-(methylamino)ethyl)piperazin-1-yl)methanone], the IC90 came to 130 nM.

With `CN(C)CCN1CCN(C(=O)c2ccc(Nc3nccn4c(-c5ccc(OCC#N)c(F)c5F)cnc34)cc2Cl)CC1` [Example 10, 2-(4-(8-((3-chloro-4-(4-(2-(dimethylamino)ethyl)piperazine-1-carbonyl)phenyl)amino)imidazo[1,2-a]pyrazin-3-yl)-2,3-difluorophenoxy)acetonitrile], the IC90 came out at 64 nM.

Consider `CN(C)CCN1CCN(C(=O)c2ccc(Nc3nccn4c(-c5ccc(OC(F)F)cc5)cnc34)cc2Cl)CC1` [Example 69, [2-chloro-4-[[3-[4-(difluoromethoxy)phenyl]imidazo[1,2-a]pyrazin-8-yl]amino]phenyl]-[4-[2-(dimethylamino)ethyl]piperazin-1-yl]methanone], for which the IC90 came to 140 nM.

As to `COc1ccc(-c2cnc3c(Nc4ccc(C(=O)N5CCN(C6CCNC6)CC5)c(Cl)c4)nccn23)cc1F` (centres unmarked) [Example 71, [2-chloro-4-[[3-(3-fluoro-4-methoxyphenyl)imidazo[1,2-a]pyrazin-8-yl]amino]phenyl]-(4-pyrrolidin-3-ylpiperazin-1-yl)methanone;hydrochloride], the IC90 was 280 nM.

`COc1ccc(-c2cnc3c(Nc4ccc(C(=O)N5CCN(CCNC6CC6)CC5)c(Cl)c4)nccn23)cc1F` [Example 58, [2-chloro-4-[[3-(3-fluoro-4-methoxyphenyl)imidazo[1,2-a]pyrazin-8-yl]amino]phenyl]-[4-[2-(cyclopropylamino)ethyl]piperazin-1-yl]methanone]: the IC90 was found to be 330 nM.

As for `COc1ccc(-c2cnc3c(Nc4ccc(C(=O)N5CC5)c(Cl)c4)nccn23)c(F)c1F` [Example 9, aziridin-1-yl(2-chloro-4-((3-(2,3-difluoro-4-methoxyphenyl)imidazo[1,2-a]pyrazin-8-yl)amino)phenyl)methanone], the IC90 came to 1600 nM.

In the case of `N#CCOc1ccc(-c2cnc3c(Nc4ccc(C(=O)N5CCC(C(=O)N6CCNCC6CO)CC5)c(Cl)c4)nccn23)c(F)c1F` (centres unmarked) [Example 30, 2-[4-[8-[3-chloro-4-[4-[2-(hydroxymethyl)piperazine-1-carbonyl]piperidine-1-carbonyl]anilino]imidazo[1,2-a]pyrazin-3-yl]-2,3-difluoro-phenoxy]acetonitrile trifluoroacetate], the IC90 was 190 nM.

Consider `N#CCOc1ccc(-c2cnc3c(Nc4ccc(C(=O)N5CCN(CCN6CCC(C(N)=O)C6)CC5)c(Cl)c4)nccn23)c(F)c1F` (centres unmarked) [Example 89], for which the IC90 turned out to be 42 nM.

For `N#CCOc1ccc(-c2cnc3c(Nc4ccc(C(=O)N5CCOCC5)c(Cl)c4)nccn23)c(F)c1F` [Example 79, 2-[4-[8-[3-chloro-4-(morpholine-4-carbonyl)anilino]imidazo[1,2-a]pyrazin-3-yl]-2,3-difluorophenoxy]acetonitrile], the IC90 came out at 160 nM.

`COc1ccc(-c2cnc3c(Nc4ccc(C(=O)N5CCC(CCN)CC5)c(Cl)c4)nccn23)c(F)c1F` [Example 7, (4-(2-aminoethyl)piperidin-1-yl)(2-chloro-4-((3-(2,3-difluoro-4-methoxyphenyl)imidazo[1,2-a]pyrazin-8-yl)amino)phenyl)methanone]: the IC90 worked out at 100 nM.

In the case of `COc1ccc(-c2cnc3c(Nc4ccc(C(=O)N5CCN(CCN(C)C)CC5)c(Cl)c4)nccn23)cc1F` [Example 55, [2-chloro-4-[[3-(3-fluoro-4-methoxyphenyl)imidazo[1,2-a]pyrazin-8-yl]amino]phenyl]-[4-[2-(dimethylamino)ethyl]piperazin-1-yl]methanone;hydrochloride], the IC90 came out at 140 nM.

Consider `N#Cc1cc(Nc2nccn3c(-c4ccc(OC(F)F)cc4)cnc23)ccc1C(=O)N1CCC(CN)CC1` [Example 27, 2-(4-(aminomethyl)piperidine-1-carbonyl)-5-((3-(4-(difluoromethoxy)phenyl)imidazo[1,2-a]pyrazin-8-yl)amino)benzonitrile], for which the IC90 came out at 1500 nM.

Consider `COc1ccc(-c2cnc3c(Nc4ccc(C(=O)N5CCC(O)(CCN(C)C)CC5)c(Cl)c4)nccn23)cc1F` [Example 28, (2-chloro-4-((3-(3-fluoro-4-methoxyphenyl)imidazo[1,2-a]pyrazin-8-yl)amino)phenyl)(4-(2-(dimethylamino)ethyl)-4-hydroxypiperidin-1-yl)methanone], for which the IC90 was 140 nM.

Staying with this experiment, now noted: Acinetobacter baumannii, ATCC17978, 16 h, read-out: ATCC17978 IC90.
For `CN(C)C1CN(CCN2CCN(C(=O)c3ccc(Nc4nccn5c(-c6ccc(OCC#N)c(F)c6F)cnc45)cc3Cl)CC2)C1` [Example 102, 2-[4-[8-[3-chloro-4-[4-[2-[3-(dimethylamino)azetidin-1-yl]ethyl]piperazine-1-carbonyl]anilino]imidazo[1,2-a]pyrazin-3-yl]-2,3-difluorophenoxy]acetonitrile; 2,2,2-trifluoroacetic acid], the IC90 was determined as 170 nM.

In the case of `N#CCOc1ccc(-c2cnc3c(Nc4ccc(C(=O)N5CCN(C(=O)[C@@H]6C[C@@H](O)CN6)CC5)c(Cl)c4)nccn23)c(F)c1F` [Example 34, 2-[4-[8-[3-chloro-4-[4-[(2S,4R)-4-hydroxypyrrolidine-2-carbonyl]piperazine-1-carbonyl]anilino]imidazo [1,2-a]pyrazin-3-yl]-2,3-difluroo-phenoxy]acetonitrile formate], the IC90 turned out to be 31 nM.

As to `CNCC(=O)N1CCN(C(=O)c2ccc(Nc3nccn4c(-c5ccc(OC)c(F)c5F)cnc34)cc2Cl)CC1` [Example 53, 1-[4-[2-chloro-4-[[3-(2,3-difluoro-4-methoxyphenyl)imidazo[1,2-a]pyrazin-8-yl]amino]benzoyl]piperazin-1-yl]-2-(methylamino)ethanone; hydrochloride], the IC90 was 56 nM.

As for `N#CCOc1ccc(-c2cnc3c(Nc4ccc(C(=O)N5CCN(CCN6CCC(CO)C6)CC5)c(Cl)c4)nccn23)c(F)c1F` (centres unmarked) [Example 90, 2-[4-[8-[3-chloro-4-[4-[2-[3-(hydroxymethyl)pyrrolidin-1-yl]ethyl]piperazine-1-carbonyl]anilino]imidazo[1,2-a]pyrazin-3-yl]-2,3-difluorophenoxy]acetonitrile; 2,2,2-trifluoroacetic acid], the IC90 was determined as 43 nM.

For `CN(C)C1CCN(CCN2CCN(C(=O)c3ccc(Nc4nccn5c(-c6ccc(OCC#N)c(F)c6F)cnc45)cc3Cl)CC2)C1` (centres unmarked) [Example 100, 2-[4-[8-[3-chloro-4-[4-[2-[3-(dimethylamino)pyrrolidin-1-yl]ethyl]piperazine-1-carbonyl]anilino]imidazo[1,2-a]pyrazin-3-yl]-2,3-difluorophenoxy]acetonitrile; 2,2,2-trifluoroacetic acid], the IC90 was 170 nM.

With `N#CCOc1ccc(-c2cnc3c(Nc4ccc(C(=O)N5CCN(CCN6CCC(C(=O)O)C6)CC5)c(Cl)c4)nccn23)c(F)c1F` (centres unmarked) [Example 47, 1-[2-[4-[2-chloro-4-[[3-[4-(cyanomethoxy)-2,3-difluoro-phenyl]imidazo[1,2-a]pyrazin-8-yl]amino]benzoyl]piperazin-1-yl]ethyl]pyrrolidine-3-carboxylic Acid Trifluoroacetate], the IC90 is 430 nM.

As to `N#CCOc1ccc(-c2cnc3c(Nc4ccc(C(=O)N5CCN(CCN6CCC(O)C6)CC5)c(Cl)c4)nccn23)c(F)c1F` (centres unmarked) [Example 95, 2-[4-[8-[3-chloro-4-[4-[2-(3-hydroxypyrrolidin-1-yl)ethyl]piperazine-1-carbonyl]anilino]imidazo[1,2-a]pyrazin-3-yl]-2,3-difluorophenoxy]acetonitrile; 2,2,2-trifluoroacetic acid], the IC90 worked out at 56 nM.
